Measurements as given in patent US9593099B2, “Compounds and compositions as protein kinase inhibitors” (Array BioPharma, Inc., priority 2009, dated 2017).
Values belong to the compound of their own block, whether it stands above or below them.

What was measured:
[1] = In Vivo Pharmacokinetics Assay in mouse
Protocol: In Vivo Pharmacokinetics Assay
(§1) Full pharmacokinetics study: Male Balb/c mice (n=3, body weights 22-25 g) or male Wistar rats (n=3, body weights 250-300 g) were administered the test compound intravenously via the lateral tail vein or orally via gavage. The formulation was typically a 2.5 mg/mL solution of the compound in 75% PEG300 and 25% D5W. Six blood samples of 50 μL each were collected serially for 24 h after dosing. The blood samples were centrifuged to separate the plasma. Plasma samples were analyzed and quantified by LC-MS/MS.
as §1, with “Rapid” for “Full”, “intravenously (IV)” for “intravenously”, “orally (PO)” for “orally”, “Blood” for “The blood”, “and plasma separated and pooled across” for “to separate”, “three animals at each time point per dose route.” for “plasma.”
For both full and rapid pharmacokinetics studies, the following parameters were calculated by non-compartmental regression analysis using Winnonlin 5.0 software (Pharsight, Mountain View, Calif., USA): plasma clearance (Cl), plasma maximum concentration (Cmax), plasma area-under-the-concentration-time-curve (AUC0-inf), and percent oral bioavailability (F %).

[2] = Liver Microsomal Clearance Assay, human; type: in vitro ADME
Text: Liver Microsomal Clearance Assay
The in vitro microsomal clearance assay is designed to assess potential risks associated with hepatic metabolic stability of compounds. […] These values may be scaled to predict hepatic metabolic clearance rate (CLh, mL/min/kg) and extraction ratio (ER, expressed as a ratio of the predicted hepatic metabolic clearance to hepatic blood flow in that species). In general, compounds with high predicted CLint or ER in vitro are considered to be at high risk for exposure-limiting metabolism in vivo.

[3] = test system: SW620 cells; assay: SW620 Cell Viability Assay (Cell Titer Glo); type: cell-based; conditions: 9 serial dilutions between 10 and 0.002 μM, without MEK inhibitor
Protocol: The present invention also includes combinations of the BRaf inhibitors disclosed in this invention with other agents. In particular, the present invention provides for combinations with MEK1/2 inhibitors. FIG. 1 illustrates that the addition of a MEK small molecule inhibitor can reverse the induced ERK signaling, cell growth and transformation caused by a Raf small molecule inhibitor.
SW620 Cell Viability Assay
SW620 cells were seeded in 1640 RPMI+10% FBS at a density of 1500 cells per 96-well in black walled, clear bottom tissue culture treated plates. Test compounds were serially diluted in DMSO then added to the cells (final DMSO concentration of 0.1%) and incubated at 37° C. and 5% CO2 for 4 days. To measure cell viability, cell plates were brought to room temperature, culture media was removed, and 200 μl of Cell Titer-Glo reagent (Promega, kit components mixed as per the manufacturer's protocol then diluted 1:2 with growth media) was added to each well. Plates were shaken for 5 minutes, then incubated at room temperature for 5 minutes, and the luminescence was measured (Trilux, Perkin Elmer).

[4] = test system: p38α MAP Kinase; assay: A549 p38α MAP Kinase Bright-Glo Reporter Gene Assay; type: cell-based; conditions: ratio of A549 p38 RGA IC50 to A375 CP IC50
Protocol: A549 p38α MAP Kinase Bright-Glo Reporter Gene Assay
A549 cells were stably-transfected with the IL-8 promoter driven reporter, pGL3-IL8-Luc. The cells were plated at 4×10^5/ml into 384-well solid white plates (40 ul/well, 5% CD-FBS, 1×P/S, DMEM) and were incubated overnight (18-20 hours) at 37° C. Test compounds were serially diluted in DMSO, then 50 nl of test solution was added to the incubation (final DMSO concentration of 0.1%). After incubating with test compound for 30 min, cells were stimulated with 1 ng/ml IL-1 beta (10 ul of 5 ng/ml solution per well). Bright-Glo (25 ul/well) was added to measure luciferase expression after 7-8 hours of stimulation.

SMILES: COC(=O)N[C@@H](C)CNc1nccc(-c2cn(C(C)C)nc2-c2cccc(NS(C)(=O)=O)c2F)n1 [Compound 4, methyl N-[(2S)-1-({4-[3-(2-fluoro-3-methanesulfonamidophenyl)-1-(propan-2-yl)-1H-pyrazol-4-yl]pyrimidin-2-yl}amino)propan-2-yl]carbamate]
F ([1]; PO/IV 10/2 mg/kg): 36 ± 6%

SMILES: COC(=O)N[C@@H](C)CNc1nccc(-c2cn(C(C)C)nc2-c2cc(Cl)cc(NS(C)(=O)=O)c2F)n1 [Compound 9, Methyl N-[(2S)-1-({4-[3-(5-chloro-2-fluoro-3-methanesulfonamidophenyl)-1-(propan-2-yl)-1H-pyrazol-4-yl]pyrimidin-2-yl}amino)propan-2-yl]carbamate]
F ([1]; PO/IV 10/2 mg/kg): 43 ± 6%
effect on cellular proliferation (negative inhibition in FIG. 1) [3]: induction in cellular proliferation
ER (human) [2]: < 0.21

SMILES: CNc1nccc(-c2cn(C(C)C)nc2-c2cc(Cl)cc(NS(C)(=O)=O)c2F)n1 [Compound 29, N-(5-chloro-2-fluoro-3-{4-[2-(methylamino)pyrimidin-4-yl]-1-(propan-2-yl)-1H-pyrazol-3-yl}phenyl)methanesulfonamide]
(p38 RGA)/(A375) ratio [4]: 220

SMILES: COC(=O)NC[C@H](C)Nc1nccc(-c2cn(C(C)C)nc2-c2cc(Cl)cc(NS(C)(=O)=O)c2F)n1 [Compound 32, Methyl N-[(2S)-2-({4-[3-(5-chloro-2-fluoro-3-methanesulfonamidophenyl)-1-(propan-2-yl)-1H-pyrazol-4-yl]pyrimidin-2-yl}amino)propyl]carbamate]
(p38 RGA)/(A375) ratio [4]: 91

Now from value to compound:

F ([1]; PO/IV 5/2 mg/kg, n = 1): 46 (n = 1) %
SMILES: CCCS(=O)(=O)Nc1cc(Cl)cc(-c2nn(C(C)C)cc2-c2ccnc(NC[C@H](C)NC(=O)OC)n2)c1F [Compound 1, Methyl N-[(2S)-1-[(4-{3-[5-chloro-2-fluoro-3-(propane-1-sulfonamido)phenyl]-1-(propan-2-yl)-1H-pyrazol-4-yl}pyrimidin-2-yl)amino]propan-2-yl]carbamate]

F ([1]; PO/IV 5/2 mg/kg, n = 1): 6 (n = 1) %
SMILES: CCCS(=O)(=O)Nc1cccc(-c2nn(C(C)C)cc2-c2ccnc(NC[C@H](C)NC(=O)OC)n2)c1F [Compound 3, methyl N-[(2S)-1-[(4-{3-[2-fluoro-3-(propane-1-sulfonamido)phenyl]-1-(propan-2-yl)-1H-pyrazol-4-yl}pyrimidin-2-yl)amino]propan-2-yl]carbamate]

F ([1]; PO/IV 10/2 mg/kg): 15 ± 3%
ER (human) [2]: 0.69
SMILES: COC(=O)N[C@@H](C)CNc1nccc(-c2cn(C(C)C)nc2-c2c(F)ccc(NS(C)(=O)=O)c2F)n1 [Compound 6, methyl N-[(2S)-1-({4-[3-(2,6-difluoro-3-methanesulfonamidophenyl)-1-(propan-2-yl)-1H-pyrazol-4-yl]pyrimidin-2-yl}amino)propan-2-yl]carbamate]

F ([1]; PO/IV 10/2 mg/kg): 8 ± 7%
SMILES: CCCS(=O)(=O)Nc1ccc(F)c(-c2nn(C(C)C)cc2-c2ccnc(NC[C@H](C)NC(=O)OC)n2)c1F [Compound 7, Methyl N-[(2S)-1-[(4-{3-[2,6-difluoro-3-(propane-1-sulfonamido)phenyl]-1-(propan-2-yl)-1H-pyrazol-4-yl}pyrimidin-2-yl)amino]propan-2-yl]carbamate]
